# Experimental data reported in ChEMBL document CHEMBL5385875, “Tumor killing by a dietary curcumin mono-carbonyl analog that works as a selective ROS generator via TrxR inhibition” (Eur J Med Chem, 2023).
# Calls of active or inactive are those of the source. No cut-off for these calls is given here.
# Legend:
# HT-1080 = experiment: Cytotoxicity against human HT-1080 cells assessed as reduction in cell viability incubated for 48 hrs by MTT assay; type: functional, cell-based; conditions: HT-1080, 48 h
# NCI-H460 [1] = experiment: Upregulation of caspase-3 activation in human NCI-H460 cells at 1 to 2 uM measured after 48 hrs by immunoblot analysis; type: functional, cell-based; conditions: dose 1-2 µM
# NCI-H460 [2] = experiment: Cytotoxicity against human NCI-H460 cells assessed as reduction in cell viability at 0.5 to 2 uM incubated for 48 hrs in presence of BSO by MTT assay; type: functional, cell-based; conditions: dose 0.5-2 µM
# NCI-H460 [3] = experiment: Downregulation of Bcl-2 expression in human NCI-H460 cells at 1 to 2 uM measured after 48 hrs in presence of NAC by immunoblot analysis; type: functional, cell-based; conditions: dose 1-2 µM
# [4] = Toxicity in BALB/c nude mouse assessed as effect on liver at 5 to 15 mg/kg, ip measured every two days for 27 days; type: organism-based; conditions: in vivo, 648 h, dose 5-15 mg/kg, time 27 day
# NCI-H460 [5] = experiment: Induction of intracellular ROS accumulation in human NCI-H460 cells at 1 to 2 uM measured after 6 hrs in presence of VE by DCFH-DA dye based fluorescence assay; type: functional, cell-based; conditions: dose 1-2 µM
# NCI-H460 [6] = experiment: Cytotoxicity against human NCI-H460 cells assessed as reduction in cell viability at 0.5 to 2 uM incubated for 48 hrs in presence of dithiothreitol by MTT assay; type: functional, cell-based; conditions: dose 0.5-2 µM
# [7] = Selectivity index, ratio of IC50 for human MRC5 cells to IC50 for human NCI-H460 cells; type: toxicity; conditions: MRC5 cells versus NCI-H460 cells, read-out: Ratio IC50
# HepG2 = experiment: Cytotoxicity against human HepG2 cells assessed as reduction in cell viability incubated for 48 hrs by MTT assay; type: functional, cell-based; conditions: HepG2, 48 h
# [8] = Toxicity in BALB/c nude mouse assessed as effect on heart at 5 to 15 mg/kg, ip measured every two days for 27 days; type: organism-based; conditions: in vivo, 648 h, dose 5-15 mg/kg, time 27 day
# NCI-H460 [9] = experiment: Upregulation of caspase-3 activation in human NCI-H460 cells at 1 to 2 uM measured after 48 hrs in presence of NAC by immunoblot analysis; type: functional, cell-based; conditions: dose 1-2 µM
# NCI-H460 [10] = experiment: Induction of ferroptosis in human NCI-H460 cells assessed as reduction in GPX4 protein expression measured after 24 hrs by immunoblot analysis; type: functional, cell-based; conditions: dose 1-2 µM
# NCI-H460 [11] = experiment: Induction of intracellular ROS accumulation in human NCI-H460 cells incubated for 1 to 12 hrs by DCFH-DA dye based fluorescence assay; type: functional, cell-based; conditions: dose 0.5-2 µM, time 1-12 hrs
# NCI-H460 [12] = experiment: Antitumor activity against human NCI-H460 cells xenografted in BALB/c nude mouse assessed as induction of […] at 5 to 15 mg/kg by TUNEL staining based analysis; type: functional, organism-based; conditions: dose 5-15 mg/kg
# NCI-H460 [13] = experiment: Induction of ferroptosis in human NCI-H460 cells assessed as increase in intracellular […] by measuring increase in red fluorescence intensity at 0.5 uM incubated for 40 hrs in presence of NAC by C11-BODIPY staining based microscopy analysis; type: functional, cell-based
# [14] = target: T1, Thioredoxin reductase (Homo sapiens) (UniProt Q16881+Q9NNW7+Q86VQ6); experiment: Inhibition of TrxR in human NCI-H460 cells measured after 6 hrs by fluorescence microscopy based analysis; type: cell-based; conditions: dose 0.5-2 µM
# NCI-H460 [15] = experiment: Induction of ferroptosis in human NCI-H460 cells assessed as increase in MDA levels at 2 uM measured after 40 hrs in presence of Fer-1 by MDA assay; type: functional, cell-based
# NCI-H460 [16] = experiment: Induction of ferroptosis in human NCI-H460 cells assessed as reduction in GPX4 protein expression at 1 to 2 uM measured after 24 hrs in presence of NAC by immunoblot analysis; type: functional, cell-based; conditions: dose 1-2 µM
# [17] = target: T1, Thioredoxin reductase (Homo sapiens); experiment: Inhibition of TrxR in human NCI-H460 cells measured after 6 hrs by DTNB reduction assay relative to control; type: cell-based; conditions: dose 0.5-2 µM
# [18] = Toxicity in BALB/c nude mouse assessed as effect on spleen at 5 to 15 mg/kg, ip measured every two days for 27 days; type: organism-based; conditions: in vivo, 648 h, dose 5-15 mg/kg, time 27 day
# NCI-H460 [19] = experiment: Cytotoxicity against human NCI-H460 cells assessed as reduction in cell viability at 0.5 to 1 uM measured after 48 hrs in presence of Z-VAD-fmk by MTT assay; type: functional, cell-based; conditions: dose 0.5-1 µM
# NCI-H460 [20] = experiment: Induction of ferroptosis in human NCI-H460 cells assessed as increase in intracellular […] by measuring increase in red fluorescence intensity at 0.25 to 0.5 uM incubated for 40 hrs by C11-BODIPY staining based microscopy analysis; type: functional, cell-based; conditions: dose 0.25-0.5 µM
# NCI-H460 [21] = experiment: Induction of ferroptosis in human NCI-H460 cells assessed as increase in MDA levels at 2 uM measured after 40 hrs in presence of NAC by MDA assay; type: functional, cell-based
# [22] = target: T1, Thioredoxin reductase (Homo sapiens); experiment: Inhibition of TrxR in human MRC5 cells at 2 uM measured after 6 hrs by fluorescence microscopy based analysis; type: cell-based
# NCI-H460 [23] = experiment: Induction of ferroptosis in human NCI-H460 cells assessed as increase in MDA levels at 2 uM measured after 40 hrs in presence of VE by MDA assay; type: functional, cell-based
# NCI-H460 [24] = experiment: Induction of ROS accumulation in human NCI-H460 cells assessed as reduction in GSH levels by measuring yellow green fluorescence incubated for 9 hrs by fluorescence microscope based analysis; type: functional, cell-based
# [25] = Toxicity in BALB/c nude mouse assessed as effect on lung at 5 to 15 mg/kg, ip measured every two days for 27 days; type: organism-based; conditions: in vivo, 648 h, dose 5-15 mg/kg, time 27 day
# NCI-H460 [26] = experiment: Upregulation of caspase-9 activation in human NCI-H460 cells at 1 to 2 uM measured after 48 hrs in presence of NAC by immunoblot analysis; type: functional, cell-based; conditions: dose 1-2 µM
# NCI-H460 [27] = experiment: Cytotoxicity against human NCI-H460 cells assessed as reduction in cell viability at 0.5 to 1 uM measured after 48 hrs in presence of 3-methuladenine by MTT assay; type: functional, cell-based; conditions: dose 0.5-1 µM
# NCI-H460 [28] = experiment: Cytotoxicity against human NCI-H460 cells assessed as reduction in cell viability at 0.5 to 1 uM measured after 48 hrs in presence of ferrostatin-1 by MTT assay; type: functional, cell-based; conditions: dose 0.5-1 µM
# NCI-H460 [29] = experiment: Induction of apoptosis in human NCI-H460 cells assessed as reduction of mitochondrial membrane potential incubated for 12 to 36 hrs by JC-1 staining based flow cytometry analysis; type: functional, cell-based; conditions: dose 0.5-2 µM, time 12-36 hrs
# NCI-H460 [30] = experiment: Induction of ferroptosis in human NCI-H460 cells assessed as increase in MDA levels at 2 uM measured after 40 hrs in presence of erastin by MDA assay; type: functional, cell-based
# NCI-H460 [31] = experiment: Induction of ROS accumulation in human NCI-H460 cells assessed as reduction in GSH levels by measuring yellow green fluorescence incubated for 9 hrs in presence of NAC by fluorescence microscope based analysis; type: functional, cell-based
# NCI-H460 [32] = experiment: Upregulation of caspase-9 activation in human NCI-H460 cells at 1 to 2 uM measured after 48 hrs by immunoblot analysis; type: functional, cell-based; conditions: dose 1-2 µM
# NCI-H460 [33] = experiment: Induction of intracellular ROS accumulation in human NCI-H460 cells at 1 to 2 uM measured after 6 hrs in presence of NAC by DCFH-DA dye based fluorescence assay; type: functional, cell-based; conditions: dose 1-2 µM
# MRC5 = experiment: Induction of intracellular ROS accumulation in human MRC5 cells at upto 2 uM incubated for 6 hrs by DCFH-DA dye based fluorescence assay; type: functional, cell-based
smiles,measurement,setting,value
O=C1/C(=C/c2cccc(C(F)(F)F)c2)CNC/C1=C\c1cccc(C(F)(F)F)c1,IC50,HT-1080,930 nM
same,Activity,NCI-H460 [1],Active
same,Activity,NCI-H460 [2],Active
same,Activity,NCI-H460 [3],inactive
same,Activity,[4],Non-Toxic
same,Activity,NCI-H460 [5],inactive
same,Activity,NCI-H460 [6],inactive
same,selectivity ratio,[7],32
same,IC50,HepG2,670 nM
same,Activity,[8],Non-Toxic
same,Activity,NCI-H460 [9],inactive
same,Activity,NCI-H460 [10],Dose-Dependent Effect
same,Activity,NCI-H460 [11],Dose-Dependent Effect
same,Activity,NCI-H460 [12],Active
same,Activity,NCI-H460 [13],inactive
same,inhibition,[14],Dose-Dependent Effect
same,Activity,NCI-H460 [15],inactive
same,Activity,NCI-H460 [16],inactive
same,inhibition,[17],Dose-Dependent Effect
same,Activity,[18],Non-Toxic
same,Activity,NCI-H460 [19],Active
same,Activity,NCI-H460 [20],Active
same,Activity,NCI-H460 [21],inactive
same,inhibition,[22],inactive
same,Activity,NCI-H460 [23],inactive
same,Activity,NCI-H460 [24],Dose-Dependent Effect
same,Activity,[25],Non-Toxic
same,Activity,NCI-H460 [26],inactive
same,Activity,NCI-H460 [27],inactive
same,Activity,NCI-H460 [28],Active
same,Activity,NCI-H460 [29],Dose-Dependent Effect
same,Activity,NCI-H460 [30],Active
same,Activity,NCI-H460 [31],inactive
same,Activity,NCI-H460 [32],Active
same,Activity,NCI-H460 [33],inactive
same,Activity,MRC5,inactive
